Experimental data reported in patent US8883827B2, “Azole derivatives as WTN pathway inhibitors” (Oslo University Hospital HF, priority 2009, dated 2014).

Experiments:
SW480 cells = assay: Illumina microarray gene expression analysis; format: cell-based; details: x at 25 μM only
Protocol: A microarray analysis using an Illumina® array was performed in triplicate to investigate differential gene expression in cells treated with a Wnt pathway inhibitor. […] In vitro transcription reactions were incubated overnight (14 hr). Labeled cRNA was hybridized to Illumina® Human-6 v3 BeadChips (Illumina, San Diego, Calif.) at 58° C. overnight, according to the Illumina® Whole-Genome Gene Expression Protocol for BeadStation (Doc. #11226030.rev.C, Illumina Inc.). The hybridized BeadChip was stained with streptavidin-Cy3 (Amersham™, PA43001) for visualization and scanned with an Illumina® BeadArray Reader. The scanned images were imported into BeadStudio 3.1.3.0 (Illumina Inc) for extraction and quality control. A criterion of 0.5-fold change in expression was applied to the analysis. […] A list of differentially expressed genes of interest is given below in tables 1 and 2. […] Many known Wnt target genes (column 3) were influenced in treated cells. Some genes were influenced that are also affected in Ls174T colorectal cancer cells expressing an inducible dominant negative form of TCF-4 (column 4) (van de Wetering et al., Mol. Cell. Biol. (2008) 28(8), p. 2732-44). Other influenced genes that are important for cell cycle control and other genes correlated to regulated canonical Wnt signaling are also shown. The degree of modulation (column 5) is an indication of the degree of change between the non-treated and compound No. 1 treated samples.

RPTPm(h) = molecular target: T1, RPTPm(h) (Homo sapiens, UniProt P28827); assay: Phosphatase screen; format: biochemical; details: 0.1% DMSO control = 100%
T1 construct: purchased Millipore (KinaseProfiler service)

ALK(h) = molecular target: T2, ALK(h) (Homo sapiens, UniProt Q9UM73); assay: Kinase screen; format: biochemical; details: 0.1% DMSO control = 100%
T2 construct: purchased Millipore (KinaseProfiler service)

JNK3(h) = molecular target: T3, JNK3(h) (Homo sapiens, UniProt P53779); assay: Kinase screen; format: biochemical; details: 0.1% DMSO control = 100%
T3 construct: purchased Millipore (KinaseProfiler service)

HePTP(h) = molecular target: T4, HePTP(h) (Homo sapiens, UniProt P35236); assay: Phosphatase screen; format: biochemical; details: 0.1% DMSO control = 100%
T4 construct: purchased Millipore (KinaseProfiler service)

CHK1(h) = molecular target: T5, CHK1(h) (Homo sapiens, UniProt O14757); assay: Kinase screen; format: biochemical; details: 0.1% DMSO control = 100%
T5 construct: purchased Millipore (KinaseProfiler service)

ROCK-I(h) = molecular target: T6, ROCK-I(h) (Homo sapiens, UniProt Q13464); assay: Kinase screen; format: biochemical; details: 0.1% DMSO control = 100%
T6 construct: purchased Millipore (KinaseProfiler service)
T6 sequence (Q13464 whole entry): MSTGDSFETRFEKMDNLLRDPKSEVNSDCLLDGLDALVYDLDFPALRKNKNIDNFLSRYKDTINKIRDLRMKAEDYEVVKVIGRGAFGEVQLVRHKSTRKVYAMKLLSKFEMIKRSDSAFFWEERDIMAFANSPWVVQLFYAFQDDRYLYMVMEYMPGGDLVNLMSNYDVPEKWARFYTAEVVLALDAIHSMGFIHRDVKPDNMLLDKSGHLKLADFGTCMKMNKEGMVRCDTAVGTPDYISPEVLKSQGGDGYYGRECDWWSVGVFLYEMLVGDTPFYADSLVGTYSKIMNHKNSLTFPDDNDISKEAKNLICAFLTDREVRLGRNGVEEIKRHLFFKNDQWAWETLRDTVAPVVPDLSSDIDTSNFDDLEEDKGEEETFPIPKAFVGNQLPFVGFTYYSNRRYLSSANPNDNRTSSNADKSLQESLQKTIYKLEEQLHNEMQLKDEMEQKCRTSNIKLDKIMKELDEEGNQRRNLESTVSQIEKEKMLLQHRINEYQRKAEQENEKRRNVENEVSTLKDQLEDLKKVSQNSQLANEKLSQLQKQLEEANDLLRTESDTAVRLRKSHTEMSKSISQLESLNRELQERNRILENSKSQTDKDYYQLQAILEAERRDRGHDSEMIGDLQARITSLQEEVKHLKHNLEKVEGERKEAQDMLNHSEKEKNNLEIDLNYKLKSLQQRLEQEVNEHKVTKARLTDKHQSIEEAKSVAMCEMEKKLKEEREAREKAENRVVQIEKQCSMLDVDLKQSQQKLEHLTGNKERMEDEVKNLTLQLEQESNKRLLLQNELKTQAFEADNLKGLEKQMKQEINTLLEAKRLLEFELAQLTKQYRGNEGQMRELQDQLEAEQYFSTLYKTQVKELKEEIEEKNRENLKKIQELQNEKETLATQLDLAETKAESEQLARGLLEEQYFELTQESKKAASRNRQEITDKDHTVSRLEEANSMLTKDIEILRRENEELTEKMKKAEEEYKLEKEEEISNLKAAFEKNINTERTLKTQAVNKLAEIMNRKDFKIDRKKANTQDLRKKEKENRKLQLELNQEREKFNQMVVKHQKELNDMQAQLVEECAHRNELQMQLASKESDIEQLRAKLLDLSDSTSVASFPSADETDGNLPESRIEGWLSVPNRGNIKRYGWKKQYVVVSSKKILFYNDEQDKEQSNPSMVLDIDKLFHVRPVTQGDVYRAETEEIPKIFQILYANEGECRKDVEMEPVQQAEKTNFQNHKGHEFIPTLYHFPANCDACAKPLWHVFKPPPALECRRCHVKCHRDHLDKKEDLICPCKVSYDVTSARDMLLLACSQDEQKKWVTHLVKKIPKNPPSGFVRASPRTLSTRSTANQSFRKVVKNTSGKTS

T1 sequence (P28827 21-1452): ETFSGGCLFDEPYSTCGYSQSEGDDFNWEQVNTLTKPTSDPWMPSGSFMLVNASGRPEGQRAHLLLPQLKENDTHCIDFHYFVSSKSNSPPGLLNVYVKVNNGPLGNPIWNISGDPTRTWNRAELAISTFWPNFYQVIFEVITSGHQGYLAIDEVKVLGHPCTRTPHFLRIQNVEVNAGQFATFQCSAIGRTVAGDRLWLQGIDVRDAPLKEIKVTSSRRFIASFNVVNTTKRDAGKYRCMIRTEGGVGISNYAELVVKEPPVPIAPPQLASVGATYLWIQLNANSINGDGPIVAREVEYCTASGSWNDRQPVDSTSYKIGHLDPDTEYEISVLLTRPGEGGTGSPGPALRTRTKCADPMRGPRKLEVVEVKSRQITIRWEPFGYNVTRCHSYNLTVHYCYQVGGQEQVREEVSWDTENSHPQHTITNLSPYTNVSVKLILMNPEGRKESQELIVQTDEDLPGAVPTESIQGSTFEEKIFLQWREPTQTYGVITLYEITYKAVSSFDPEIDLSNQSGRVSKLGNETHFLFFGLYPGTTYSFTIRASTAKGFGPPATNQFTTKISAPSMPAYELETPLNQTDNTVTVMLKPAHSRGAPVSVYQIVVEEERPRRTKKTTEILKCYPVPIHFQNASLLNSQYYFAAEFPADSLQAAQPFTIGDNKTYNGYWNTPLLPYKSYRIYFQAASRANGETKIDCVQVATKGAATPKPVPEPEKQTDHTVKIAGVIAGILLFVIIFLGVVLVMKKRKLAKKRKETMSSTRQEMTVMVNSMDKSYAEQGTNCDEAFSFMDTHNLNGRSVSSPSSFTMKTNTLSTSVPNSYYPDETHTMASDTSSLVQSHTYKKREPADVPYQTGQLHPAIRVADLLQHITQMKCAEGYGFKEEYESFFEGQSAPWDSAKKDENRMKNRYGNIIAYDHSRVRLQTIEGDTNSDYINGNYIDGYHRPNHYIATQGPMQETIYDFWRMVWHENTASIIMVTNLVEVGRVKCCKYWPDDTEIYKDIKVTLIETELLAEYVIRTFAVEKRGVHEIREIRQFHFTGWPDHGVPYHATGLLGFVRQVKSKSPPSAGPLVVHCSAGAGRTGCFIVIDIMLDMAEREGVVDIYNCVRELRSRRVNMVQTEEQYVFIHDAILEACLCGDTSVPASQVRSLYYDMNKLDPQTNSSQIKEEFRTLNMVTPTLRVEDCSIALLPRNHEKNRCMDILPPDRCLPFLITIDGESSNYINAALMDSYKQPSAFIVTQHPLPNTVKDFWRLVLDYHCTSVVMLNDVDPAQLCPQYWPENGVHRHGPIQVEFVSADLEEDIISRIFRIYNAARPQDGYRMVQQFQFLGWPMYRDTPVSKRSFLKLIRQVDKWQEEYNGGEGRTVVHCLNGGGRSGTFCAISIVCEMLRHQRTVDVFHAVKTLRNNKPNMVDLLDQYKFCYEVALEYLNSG
T3 sequence (P53779 whole entry): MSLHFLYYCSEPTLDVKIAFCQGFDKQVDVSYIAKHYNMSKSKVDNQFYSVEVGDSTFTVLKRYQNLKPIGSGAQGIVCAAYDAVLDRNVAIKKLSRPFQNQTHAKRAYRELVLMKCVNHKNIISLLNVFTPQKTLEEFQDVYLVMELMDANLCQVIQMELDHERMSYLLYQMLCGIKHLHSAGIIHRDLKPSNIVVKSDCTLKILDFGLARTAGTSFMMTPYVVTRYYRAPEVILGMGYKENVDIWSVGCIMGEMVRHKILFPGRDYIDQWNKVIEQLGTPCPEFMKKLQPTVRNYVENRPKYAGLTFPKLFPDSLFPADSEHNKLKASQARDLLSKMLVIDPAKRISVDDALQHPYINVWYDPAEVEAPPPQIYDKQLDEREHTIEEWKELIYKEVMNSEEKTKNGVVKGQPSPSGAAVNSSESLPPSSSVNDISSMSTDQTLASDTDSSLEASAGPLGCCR
T5 sequence (O14757 whole entry): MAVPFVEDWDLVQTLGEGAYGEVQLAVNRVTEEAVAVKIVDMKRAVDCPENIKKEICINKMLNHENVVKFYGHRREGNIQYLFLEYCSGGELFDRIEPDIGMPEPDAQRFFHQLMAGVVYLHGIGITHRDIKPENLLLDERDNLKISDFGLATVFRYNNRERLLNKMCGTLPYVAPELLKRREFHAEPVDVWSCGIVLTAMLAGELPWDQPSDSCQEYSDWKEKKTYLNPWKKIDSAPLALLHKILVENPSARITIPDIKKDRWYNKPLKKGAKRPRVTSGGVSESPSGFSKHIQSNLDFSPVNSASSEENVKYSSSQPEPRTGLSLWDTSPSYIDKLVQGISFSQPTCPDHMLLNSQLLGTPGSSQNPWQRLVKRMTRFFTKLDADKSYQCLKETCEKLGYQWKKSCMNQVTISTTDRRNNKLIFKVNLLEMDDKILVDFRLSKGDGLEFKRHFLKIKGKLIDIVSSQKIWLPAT
T4 sequence (P35236 whole entry): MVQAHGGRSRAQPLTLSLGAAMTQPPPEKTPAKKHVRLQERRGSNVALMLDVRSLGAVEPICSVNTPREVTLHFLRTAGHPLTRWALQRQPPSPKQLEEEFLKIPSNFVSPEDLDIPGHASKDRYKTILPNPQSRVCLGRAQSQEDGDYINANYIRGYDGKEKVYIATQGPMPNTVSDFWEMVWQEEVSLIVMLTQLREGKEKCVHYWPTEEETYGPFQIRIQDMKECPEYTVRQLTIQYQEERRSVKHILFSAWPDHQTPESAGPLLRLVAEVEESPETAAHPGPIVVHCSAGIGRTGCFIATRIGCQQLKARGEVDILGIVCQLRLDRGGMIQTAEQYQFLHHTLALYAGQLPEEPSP

For `COc1ccc(-n2c(SCc3nc(-c4ccc(C)cc4)no3)nnc2-c2ccncc2)cc1` [Compound 1], the “Degree of modulation: cell division cycle 25 homolog C (S. pombe)” value (SW480 cells) was “− (moderate down-regulation (log^2 ratio of between −0.5 and −1.0))”, the “Degree of modulation: cell division cycle associated 8” value (SW480 cells) was “− (moderate down-regulation (log^2 ratio of between −0.5 and −1.0))” and the “Degree of modulation: cyclin B2” value (SW480 cells) was “− (moderate down-regulation (log^2 ratio of between −0.5 and −1.0))”. For the same compound, the “Degree of modulation: cyclin-dependent kinase 8” value (SW480 cells) was “− (moderate down-regulation (log^2 ratio of between −0.5 and −1.0))”, the “Degree of modulation: cyclin-dependent kinase inhibitor 1B (p27, Kip1)” value (SW480 cells) was “− (moderate down-regulation (log^2 ratio of between −0.5 and −1.0))” and the “Degree of modulation: cysteine-rich, angiogenic inducer, 61” value (SW480 cells) was “−−− (very strong down-regulation (log^2 ratio of between −1.5 and −2))”. For the same compound, the “Degree of modulation: disabled homolog 2, mitogen-responsive phosphoprotein (Drosophila)” value (SW480 cells) was “− (moderate down-regulation (log^2 ratio of between −0.5 and −1.0))”, the “Degree of modulation: dynein, axonemal, heavy chain 3” value (SW480 cells) was “− (moderate down-regulation (log^2 ratio of between −0.5 and −1.0))” and the “Degree of modulation: dynein, axonemal, heavy chain 5” value (SW480 cells) was “+ (moderate up-regulation (log^2 ratio of between 0.5 and 1.0))”. The “Degree of modulation: dynein, light chain, LC8-type 2” value (SW480 cells) was “− (moderate down-regulation (log^2 ratio of between −0.5 and −1.0))”, the “Degree of modulation: dynein, light chain, roadblock-type 1” value (SW480 cells) was “− (moderate down-regulation (log^2 ratio of between −0.5 and −1.0))” and the “Degree of modulation: ephrin-A4” value (SW480 cells) was “− (moderate down-regulation (log^2 ratio of between −0.5 and −1.0))”. For the same compound, the “Degree of modulation: ephrin-B2” value (SW480 cells) was “++ (strong up-regulation (log^2 ratio of between 1.0 and 1.5))”, the “Degree of modulation: epidermal growth factor receptor (erythroblastic leukemia viral (v-erb-b) oncogene homolog, avian)” value (SW480 cells) was “+ (moderate up-regulation (log^2 ratio of between 0.5 and 1.0))” and the “Degree of modulation: ets variant gene 3” value (SW480 cells) was “−− (strong down-regulation (log^2 ratio of between −1.0 and −1.5))”. The “Degree of modulation: fibroblast growth factor 20” value (SW480 cells) was “− (moderate down-regulation (log^2 ratio of between −0.5 and −1.0))”, the “Degree of modulation: forkhead box F1” value (SW480 cells) was “+ (moderate up-regulation (log^2 ratio of between 0.5 and 1.0))” and the “Degree of modulation: forkhead box M1” value (SW480 cells) was “− (moderate down-regulation (log^2 ratio of between −0.5 and −1.0))”. The “Degree of modulation: frizzled homolog 2 (Drosophila)” value (SW480 cells) was “−− (strong down-regulation (log^2 ratio of between −1.0 and −1.5))”, the “Degree of modulation: interleukin 8” value (SW480 cells) was “++ (strong up-regulation (log^2 ratio of between 1.0 and 1.5))” and the “Degree of modulation: low density lipoprotein receptor-related protein 5-like” value (SW480 cells) was “+ (moderate up-regulation (log^2 ratio of between 0.5 and 1.0))”. The “Degree of modulation: matrix metallopeptidase 7 (matrilysin, uterine)” value (SW480 cells) was “− (moderate down-regulation (log^2 ratio of between −0.5 and −1.0))”, the “Degree of modulation: met proto-oncogene (hepatocyte growth factor receptor)” value (SW480 cells) was “+ (moderate up-regulation (log^2 ratio of between 0.5 and 1.0))” and the “Degree of modulation: mitogen-activated protein kinase kinase kinase kinase 1” value (SW480 cells) was “− (moderate down-regulation (log^2 ratio of between −0.5 and −1.0))”. For the same compound, the “Degree of modulation: nitric oxide synthase 3 (endothelial cell)” value (SW480 cells) was “+++ (very strong up-regulation (log^2 ratio of between 1.5 and 2))”, the “Degree of modulation: origin recognition complex, subunit 1-like (yeast)” value (SW480 cells) was “− (moderate down-regulation (log^2 ratio of between −0.5 and −1.0))” and the “Degree of modulation: p53 and DNA damage regulated 1” value (SW480 cells) was “− (moderate down-regulation (log^2 ratio of between −0.5 and −1.0))”. The “Degree of modulation: paired box 6” value (SW480 cells) was “− (moderate down-regulation (log^2 ratio of between −0.5 and −1.0))”, the “Degree of modulation: paired related homeobox 2” value (SW480 cells) was “− (moderate down-regulation (log^2 ratio of between −0.5 and −1.0))” and the “Degree of modulation: patched homolog 1 (Drosophila)” value (SW480 cells) was “− (moderate down-regulation (log^2 ratio of between −0.5 and −1.0))”. For the same compound, the “Degree of modulation: pituitary tumor-transforming 1” value (SW480 cells) was “− (moderate down-regulation (log^2 ratio of between −0.5 and −1.0))”, the “Degree of modulation: plasminogen activator, urokinase” value (SW480 cells) was “+ (moderate up-regulation (log^2 ratio of between 0.5 and 1.0))” and the “Degree of modulation: plasminogen activator, urokinase receptor” value (SW480 cells) was “+ (moderate up-regulation (log^2 ratio of between 0.5 and 1.0))”. For the same compound, the “Degree of modulation: runt-related transcription factor 2” value (SW480 cells) was “− (moderate down-regulation (log^2 ratio of between −0.5 and −1.0))”, the “Degree of modulation: sal-like 4 (Drosophila)” value (SW480 cells) was “+ (moderate up-regulation (log^2 ratio of between 0.5 and 1.0))” and the “Degree of modulation: sex comb on midleg-like 1 (Drosophila)” value (SW480 cells) was “− (moderate down-regulation (log^2 ratio of between −0.5 and −1.0))”. For the same compound, the “Degree of modulation: snail homolog 2 (Drosophila)” value (SW480 cells) was “++ (strong up-regulation (log^2 ratio of between 1.0 and 1.5))”, the “Degree of modulation: topoisomerase (DNA) II alpha 170 kDa” value (SW480 cells) was “− (moderate down-regulation (log^2 ratio of between −0.5 and −1.0))” and the “Degree of modulation: tumor necrosis factor receptor superfamily, member 19” value (SW480 cells) was “− (moderate down-regulation (log^2 ratio of between −0.5 and −1.0))”. It also gave an activity at 10 µM (RPTPm(h)) of 103%, an activity at 10 µM (ALK(h)) of 91% and an activity at 10 µM (JNK3(h)) of 93%. The activity at 10 µM (HePTP(h)) was 106%, the activity at 10 µM (CHK1(h)) was 106% and the activity at 10 µM (ROCK-I(h)) was 100%.
